Experimental data from patent publication US4829086A, “Soft β-adrenergic blocking agents” (priority 1985, dated 1989).

Assays:
[1] = tested on: β-adrenergic; settings: major metabolite found in the urine; Borg et al; cited from earlier work
[2] = Hydrolytic rate in 0.01 N aqueous sodium hydroxide, pH 12.0; format: physicochemical; settings: pH 12.0, ionic strength 0.10 M (NaCl), 27.3 ± 0.2° C.; for Observed pseudo first order hydrolytic rate constant k: 0.01 N NaOH, ± SEM; for half-life: 0.01 n naoh, pH 12, 0.01 N NaOH, read-out: Half-life t1/2
Protocol: (§1) Analytical Methods. A high pressure liquid chromatography (HPLC) method was developed for the determination of the rate constants. The chromatographic analysis was performed in a system consisting of Waters Associates Model 600-A Solvent Delivery System, Model U-6K Injector and Model 440 Dual Channel Absorbance Detector operated at 254 and 280 nm. A 30 cm×3.9 mm (internal diameter) reverse phase μBondpack C18 column (Waters Associates), operated at ambient temperature, was used for all separations. When plasma samples were analyzed, the column was protected with a 2.3 cm×3.9 mm (internal diameter) Guard Column (Waters) packed with μBondpack C18/Corasil packing material. The mobile phase used for the separation of 17 and its degradation product, 5, consisted of water, 1-hexane sulfonic acid in acetic acid (B-6 reagent, Waters), 0.1M triethanolamine and methanol (100:1:100:799). […] For the separation of compounds 10-16 and 18 and their degradation product 5, a mobile phase consisting of water, 1-hexane sulfonic acid in acetic acid (B-6 reagent, Waters), 0.1M triethanolamine and methanol (390:1:10:599) was used.
(§2) Determination of the Hydrolytic Rate Constants in Aqueous Solutions. A 0.01M phosphate buffer and 0.01N sodium hydroxide solution were prepared from freshly distilled deionized water. This ionic strength was maintained at 0.1M with sodium chloride. The pH of the phosphate buffer was determined at 37.0° C. with a pH meter standardized at this temperature. For determination of the hydrolytic rate constants, a fresh concentrated solution of the ester in methanol was added to the hydrolytic medium previously equilibrated to the desired temperature and mixed thoroughly to result in an initial concentration of about 5×10^-4 mol. liter^-1. All reactions were run under pseudo first order conditions. Samples of 25 μL were injected into the column at various time intervals and the pseudo first order rate constants were determined from disappearance of the compound by linear regression of natural logarithm of the peak height versus time plots. The half-life and standard error of the rate constant were calculated for each run.

[3] = Enzymatic hydrolytic cleavage in human plasma; format: in vitro ADME; settings: 37.0 ± 0.1° C.; for Observed first order hydrolytic rate constant k: ± SEM; for half-life at 1000 µM: human, plasma, read-out: Half-life t1/2
Protocol: as §1, §2
Determination of the Enzymatic Hydrolytic Cleavage Rates in Human Plasma. The freshly collected plasma used was obtained from the Civitan Regional Blood Center, Inc. (Gainesville, Fla.) and contained about 80% plasma diluted with anticoagulant citrate phosphate dextrose solution, U.S.P. The plasma was stored in a refrigerator and used within one week from the date it was collected.
A portion of 50 μL of a freshly prepared solution of the compound in methanol was added to 10 mL plasma, previously equilibrated at 37.0° C. in a water bath, and mixed thoroughly to result in an initial concentration of 1×10^-3 mol. liter^-1. One mL samples of plasma were withdrawn from the test medium, mixed immediately with 4.0 mL ice cold 95% v/v ethanol, centrifuged and the supernatant analyzed by HPLC. The first order hydrolytic rate constant was determined as before in the aqueous solutions and the results are listed in TABLE II below.

[4] = Hydrolysis in 0.01M phosphate buffer pH 7.4; format: physicochemical; settings: pH 7.4, 37° C.
Protocol: Analytical Methods. A high pressure liquid chromatography (HPLC) method was developed for the determination of the rate constants. The chromatographic analysis was performed in a system consisting of Waters Associates Model 600-A Solvent Delivery System, Model U-6K Injector and Model 440 Dual Channel Absorbance Detector operated at 254 and 280 nm. A 30 cm×3.9 mm (internal diameter) reverse phase μBondpack C18 column (Waters Associates), operated at ambient temperature, was used for all separations. When plasma samples were analyzed, the column was protected with a 2.3 cm×3.9 mm (internal diameter) Guard Column (Waters) packed with μBondpack C18/Corasil packing material. The mobile phase used for the separation of 17 and its degradation product, 5, consisted of water, 1-hexane sulfonic acid in acetic acid (B-6 reagent, Waters), 0.1M triethanolamine and methanol (100:1:100:799). […]
Determination of the Hydrolytic Rate Constants in Aqueous Solutions. […] The pH of the phosphate buffer was determined at 37.0° C. with a pH meter standardized at this temperature. […] Samples of 25 μL were injected into the column at various time intervals and the pseudo first order rate constants were determined from disappearance of the compound by linear regression of natural logarithm of the peak height versus time plots. The half-life and standard error of the rate constant were calculated for each run.

[5] = tested on: heart rate response to isoproterenol (β-adrenergic); assay: Heart rate response to isoproterenol in rats (initial drug screening); format: in vivo, male Spraque-Dawley rats; settings: 6 mg/kg i.p.; mean ± SEM
Excerpt: (§3) Initial Drug Screening Protocol. Thirty-two male Spraque-Dawley rats (Blue Spruce Farms) initially weighing 300-450 gm were divided into seven different groups, each for a different drug to be tested: 12(n=4), 14(n=4), 17(n=5), 13(n=4) and 18(n=3), corresponding to the designated compounds 12, 14, 17, 13 and 18 (number of animals), respectively. The other two groups were controls (n=8, isoproterenol alone pretreated with carrier) and those treated with a known β-blocker, dl-propranolol (n=3). Ech animal was anesthetized with sodium pentobarbital (45 mg/kg) and the carotid artery was cannulated with PE-50 tubing. The cannula was subcutaneously threaded around the neck and exteriorized dorsally between the shoulder blades. Th cannula was filled with a heparin solution (300 μg/mL) and sealed with a solid 22 gauge stylet. The animals were housed in individual stainless steel cages, and two days were allowed for recovery from the surgery. Food and water were provided ad libitum. On the day of the experiment, the blood pressure and heart rate of each rat were monitored with a pressure transducer (Narco-Bio model P-1000) and the data recorded on a four-channel physiograph (Narco-Bio systems Marck IV). One hour was allowed as an equilibration period before any drugs were administered. All beta blockers were administered intraperitoneally at a dose of 6 mg/kg. Compounds 12 and 14 and dl-proranolol were dissolved in normal saline while compounds 13, 17 and 18 were dissolved in an ethanol: water solution (3:1). Depending on the trial, controls were administered the appropriate carrier. One hour after administration of the blocker, isoproterenol (Isuprel®, Wintrop Laboratories) was administered subcutaneously at a dose of 25 μg/kg. Blood pressures and heart rate also were recorded 3, 5, 10, 15, 20, 30, 45 and 60 minutes after isoproterenol administration. Both control and experimental animals were unrestrained and free moving in their home cage throughout the experiment. […] However, significant differences in the mean heart rate response amoung the 7 groups were observed: *p<0.005;**p<0.025. Comparisons between groups were made by the Newman-Keuls procedure with significance set at the 95% confidence interval. […] All data are shown as mean±standard error of the mean.

[6] = tested on: blood pressure response to isoproterenol; assay: Blood pressure response to isoproterenol in rats; format: in vivo, male Spraque-Dawley rats; settings: 6 mg/kg i.p., isoproterenol 25 μg/kg s.c.; FIG. 3
Excerpt: as §3
Symbols are the same as those described for FIG. 1. […] Data are shown as mean±standard error of the mean.

[7] = tested on: β-adrenergic; assay: β-adrenergic activity of the acid metabolite (statement)

Observed pseudo first order hydrolytic rate constant k [2] [min⁻¹] | half-life [2] [min] | Observed first order hydrolytic rate constant k [3] [min⁻¹] | half-life at 1000 µM [3] [min] | half-life [4] [days] | Compound | activity as metabolite of metoprolol [1] | resting heart rate prior to administration of isoproterenol [5] [beat/minute] | mean change in blood pressure vs propranolol and compound 12-treated groups [6] | activity of acid [7]
 |  |  |  |  | CC(C)NCC(O)COc1ccc(CC(=O)O)cc1 (centres unmarked) [drawing 10] | inactive metabolite |  |  | 
0.208 ± 0.004 | 3.33 | 0.236 ± 0.007 | 2.93 | 13 | CC(C)NCC(O)COc1ccc(CC(=O)OCc2ccccc2)cc1 (centres unmarked) [Compound 14, Benzyl 4-(2-hydroxy-3-isopropylamino)propoxyphenylacetate] |  | 405±22 | significantly lower (p<0.15) | 
0.103 ± 0.001 | 6.73 | 0.143 ± 0.005 | 4.86 | 8.7 | CCCOC(=O)Cc1ccc(OCC(O)CNC(C)C)cc1 (centres unmarked) [Compound 11, n-Propyl 4-(2-hydroxy-3-isopropylamino)propoxyphenylacetate] |  |  |  | 
 |  |  |  |  | CC(C)NCC(O)COc1ccc(CC(=O)O)cc1 (centres unmarked) [Compound 5, 4-(2-Hydroxy-3-isopropylamino)propoxyphenylacetic acid] |  |  |  | inactive
